# Measured values taken from patent publication US20110172296A1, “MODULATION OF TRANSFORMING GROWTH FACTOR-BETA 1 EXPRESSION” (priority 2010, published 2011).
# Where “and” joins values, the source holds several entries; their conditions need not be identical. Equal entries are not always repeated. e = 2'-O-(2-methoxyethyl) (MOE); d = 2'-deoxy (DNA)
# Assays:
# BALB/c mice [1] = experiment: Tolerability in BALB/c mice: liver, kidney and spleen weights (Example 8); assay type: in vivo, mouse
# Experimental: The mice were sacrificed 2 days after the last administration and liver, spleen and kidney weights were measured. Plasma transaminase levels were also evaluated.
# The weights of liver, kidney and spleen of the mice were measured after 4 weeks and liver weights are presented in Table 10 as a percentage change compared to the corresponding weights in the PBS control. The percentage changes in kidney and spleen weight in the treated mice compared to the PBS control were negligible and are not shown.
# human TGF-beta1 mRNA [2] = experiment: Dose-dependent confirmation of antisense inhibition of human TGF-beta1 in HuVEC cells, electroporation (Example 6); assay type: cell-based
# Experimental: The gapmers from Example 5 (see Table 5) were also tested at various doses in HuVEC cells using electroporation as the transfection reagent. Cells were plated at a density of 20,000 cells per well and transfected using electroporation with 0.15625 nM, 0.3125 nM, 0.625 nM, 1.25 nM, 2.5 nM, 5 nM, 10 nM, and 20 nM concentrations of antisense oligonucleotide for 4 hours, as specified in Table 6. After a recovery period of approximately 16 hours, RNA was isolated from the cells and TGF-beta1 mRNA levels were measured by quantitative real-time PCR. TGF-beta1 mRNA levels were adjusted according to total RNA content, as measured by RIBOGREEN®. Results are presented as percent inhibition of TGF-beta1, relative to untreated control cells.
# human TGF-beta1 mRNA [3] = experiment: Dose-dependent antisense inhibition of human TGF-beta1 in HuVEC cells, Lipofectamine 2000, 0.9375-30 nM (Example 3); assay type: cell-based; details: Lipofectamine 2000
# Summary of the method: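 HuVEC cells, 5,000/well, were transfected with Lipofectamine 2000 and 0.9375-30 nM antisense oligonucleotide for 4 h, then recovered about 16 h. TGF-beta1 mRNA was quantified by real-time PCR (primer probe set RTS 2980), normalised to RIBOGREEN total RNA, and expressed as percent inhibition versus untreated cells.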
# human TGF-beta1 mRNA [4] = experiment: Antisense inhibition of human TGF-beta1 mRNA in HuVEC cells, single 10 nM dose, Lipofectamine 2000 (Example 2); assay type: cell-based
# Summary of the method: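 Percent inhibition relative to untreated controls, from qRT-PCR of mRNA corrected for total RNA (RIBOGREEN). Cells were exposed 4 h to 10 nM phosphorothioate 2-13-5 MOE gapmers with Lipofectamine 2000 at 5,000 cells/well. RNA was harvested after roughly 24 h recovery.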
# human TGF-beta1 mRNA [5] = experiment: Dose-dependent antisense inhibition of human TGF-beta1 in HuVEC cells, Lipofectamine 2000, 0.3292-80 nM, comparison with oligos of U.S. Pat. No. 6,436,909 (Example 4); assay type: cell-based
# Experimental: The dose-dependent antisense inhibition potential of these gapmers was compared with that of Oligo IDs 104992 and 1138498 from U.S. Pat. No. 6,436,909. Cells were plated at a density of 5,000 cells per well and transfected using Lipofectamine™ 2000 reagent with 0.3292 nM, 0.9877 nM, 2.963 nM, 8.8889 nM, 26.6667 nM, and 80 nM concentrations of antisense oligonucleotide for 4 hours, as specified in Table 4. After a recovery period of approximately 16 hours, RNA was isolated from the cells and TGF-beta1 mRNA levels were measured by quantitative real-time PCR. Human TGF-beta1 primer probe set RTS 2980 was used to measure mRNA levels. TGF-beta1 mRNA levels were adjusted according to total RNA content, as measured by RIBOGREEN®. Results are presented as percent inhibition of TGF-beta1, relative to untreated control cells. […] All the antisense oligonucleotides in Table 4 target human TGF-beta1 mRNA (SEQ ID NO: 1).
# BALB/c mice [6] = experiment: Tolerability in BALB/c mice: plasma transaminases ALT and AST (Example 7); details: for aspartate transaminase levels: plasma
# Experimental: (§1) These gapmer oligonucleotides were designed to target human TGF-beta1 and have varying degrees of mismatch with murine TGF-beta1 sequence, as shown in Table 1. Oligo ID Nos. 413982 and 414040 have greater than 3 mismatches to the murine TGF-beta1 sequence. Oligo ID No. 414035 has 2 mismatches to murine TGF-beta1. Oligo ID No. 414036 has no mismatches to murine TGF-beta1.
# (§2) BALB/c mice were injected with 25 mg/kg or 50 mg/kg of Oligo ID Nos. 413982, 414035, 414036, or 414040 twice a week for 4 weeks. A control group of mice was injected with phosphate buffered saline (PBS) twice a week for 4 weeks. Plasma transaminase levels were evaluated bi-weekly.
# (§3) To evaluate the impact of TGF-beta1 antisense oligonucleotides on the hepatic function of mice described above, plasma concentrations of transaminases were measured using an automated clinical chemistry analyzer (Hitachi Olympus AU400e, Melville, N.Y.).
# BALB/c mice [7] = details: mouse, in vivo
# Experimental: as §1, §2, §3
substance,measurement,setting,value
"414036 (antisense GTGTCCTTAAATACAGCCCC; sugars from the 5' end e2 d13 e5, backbone and methylation of C not given here) [compound 414036]",Liver % Weight change relative to PBS control,BALB/c mice [1]; 25 mg/kg twice a week for 4 weeks,+17%
same,Liver % Weight change relative to PBS control,BALB/c mice [1]; 50 mg/kg twice a week for 4 weeks,+35%
same,increase in liver weight,"BALB/c mice [1]; 25 or 50 mg/kg twice a week for 4 weeks, vs PBS control",≤ 35%
same,percent inhibition of TGF-beta1 mRNA relative to untreated control cells,human TGF-beta1 mRNA [2]; 0.15625 nM oligonucleotide,10%
same,percent inhibition of TGF-beta1 mRNA relative to untreated control cells,human TGF-beta1 mRNA [2]; 0.3125 nM oligonucleotide,38%
same,percent inhibition of TGF-beta1 mRNA relative to untreated control cells,human TGF-beta1 mRNA [2]; 0.625 nM oligonucleotide,55%
same,percent inhibition of TGF-beta1 mRNA relative to untreated control cells,human TGF-beta1 mRNA [2]; 1.25 nM oligonucleotide,74%
same,percent inhibition of TGF-beta1 mRNA relative to untreated control cells,human TGF-beta1 mRNA [2]; 2.5 nM oligonucleotide,83%
same,percent inhibition of TGF-beta1 mRNA relative to untreated control cells,human TGF-beta1 mRNA [2]; 5.00 nM oligonucleotide,92%
same,percent inhibition of TGF-beta1 mRNA relative to untreated control cells,human TGF-beta1 mRNA [2]; 10.00 nM oligonucleotide,94%
same,percent inhibition of TGF-beta1 mRNA relative to untreated control cells,human TGF-beta1 mRNA [2]; 20 nM oligonucleotide,92%
same,percent inhibition of TGF-beta1,human TGF-beta1 mRNA [3]; 0.9375 nM,56%
same,percent inhibition of TGF-beta1,human TGF-beta1 mRNA [3]; 1.875 nM,75%
same,percent inhibition of TGF-beta1,human TGF-beta1 mRNA [3]; 3.75 nM,86%
same,percent inhibition of TGF-beta1,human TGF-beta1 mRNA [3]; 7.5 nM,93%
same,percent inhibition of TGF-beta1,human TGF-beta1 mRNA [3]; 15 nM,95%
same,percent inhibition of TGF-beta1,human TGF-beta1 mRNA [3]; 30 nM,93%
same,% inhibition,"human TGF-beta1 mRNA [4]; 10 nM oligonucleotide, HuVEC, relative to untreated control cells, gapmers targeted to SEQ ID NO: 1",87%
same,inhibition of a TGF-beta1 mRNA,"human TGF-beta1 mRNA [4]; threshold lists of Oligo IDs, 10 nM",60% and 65% and 70% and 75% and 80% and 85%
same,percent inhibition of TGF-beta1,human TGF-beta1 mRNA [5]; 0.3292 nM,70%
same,percent inhibition of TGF-beta1,human TGF-beta1 mRNA [5]; 0.9877 nM,83%
same,percent inhibition of TGF-beta1,human TGF-beta1 mRNA [5]; 2.963 nM,91%
same,percent inhibition of TGF-beta1,human TGF-beta1 mRNA [5]; 8.8889 nM,93%
same,percent inhibition of TGF-beta1,human TGF-beta1 mRNA [5]; 26.6667 nM,92%
same,percent inhibition of TGF-beta1,human TGF-beta1 mRNA [5]; 80.0 nM,89%
same,alanine transaminase levels,"BALB/c mice [6]; 25 mg/kg twice a week, Week 2",70 IU/L
same,alanine transaminase levels,"BALB/c mice [6]; 25 mg/kg twice a week, Week 4",61 IU/L
same,aspartate transaminase levels,"BALB/c mice [6]; 25 mg/kg twice a week, Week 2",119 IU/L
same,aspartate transaminase levels,"BALB/c mice [6]; 25 mg/kg twice a week, Week 4",148 IU/L
same,alanine transaminase levels,"BALB/c mice [6]; 50 mg/kg twice a week, Week 2",99 IU/L
same,alanine transaminase levels,"BALB/c mice [6]; 50 mg/kg twice a week, Week 4",190 IU/L
same,aspartate transaminase levels,"BALB/c mice [6]; 50 mg/kg twice a week, Week 2",183 IU/L
same,aspartate transaminase levels,"BALB/c mice [6]; 50 mg/kg twice a week, Week 4",467 IU/L
same,increase in ALT/AST,BALB/c mice [6]; 25 or 50 mg/kg twice a week for four weeks,< 8 fold
same,tolerability compared to Oligo ID 105204,BALB/c mice [7],improved tolerability
